Consider 35 compounds from patent publication US20090036387A1, “NOVEL CHEMICAL ENTITIES AFFECTING NEUROBLASTOMA TUMOR-INITIATING CELLS” (The Hospital for Sick Children, priority 2005, published 2009).

Where a name gives a salt, the structure may show the parent alone.

The first assay deals with NB12 tumor-initiating cells. Put plainly: IC50 determination, Alamar Blue cell survival/growth assay. It counts as cell-based, human. The following applies: Homo sapiens, read-out: NB12 IC50 (nM). As to the method:
FIG. 4A-4E, according to one embodiment of the invention, presents the IC50 values that were determined for the 64 selected candidate compounds. […] Tumor-initiating cells and normal cells were treated with 10 serial dilutions of compounds (5 μM to 9 nM). […] (FS90=normal cells; NB12=tumor-initiating cells).
FIG. 6A-6FF, according to one embodiment of the invention, presents IC50 values for 32 selected compounds from the LOPAC and Prestwick collections. Tumor-initiating cells (NB12) and normal cells (FS90) were treated with 10 serial dilutions of compounds ranging from 5 μM to 9 nM. Cell survival/growth was assayed using Alamar Blue and the percentage of control Alamar Blue signal was plotted versus log[compound] nM. IC50 values for NB12 are given above each plot.
FIG. 7A-7FF, according to one embodiment of the invention, represents IC50 values determined for 32 selected compounds from the LOPAC, Prestwick, and Spectrum collections. Tumor-initiating cells (NB12) and normal cells (FS90) were treated with 10 serial dilutions of compounds ranging from 5 μM to 9 nM. Cell survival/growth was assayed using Alamar Blue and the percentage of control Alamar Blue signal was plotted versus log[compound] nM (FS90 in dashed line, NB12 in bolded line). IC50 values for NB12 and FS90 are given beside each plot.
To identify compounds that suppress the growth and survival of neuroblastoma (NB) tumor-initiating cells and not nontransformed normal cells (SKPs), a cell-based assay was established and used in which NB tumor-initiating cells from a multiple relapse NB patient (NB12, passage 6-17) and normal SKPs (FS90, passage 2-5) were tested in parallel to detect specific alterations of cell viability/proliferation. For each cell type, cells were passaged 5 days prior to screening. Three thousand (3000) cells in 100 µL SKPs growth media (B27, bFGF, EGF, P/S, fungizone in DMEM:F12 with 50% hFS conditioned media) were robotically plated in uncoated 96 well plates and treated with test compound for 30 hours, prior to a 24 hour incubation in the presence of Alamar Blue and subsequent fluorometric reading.
Thirty-two (32) compounds were selected for IC50 determinations using FS90, FS105, and NB12. IC50 for the remaining compounds of interest will be tested at a later date (in combination with hits from additional libraries).
Consider `C[C@H]1O[C@@H](O[C@H]2[C@@H](O)C[C@H](O[C@H]3[C@@H](O)C[C@H](O[C@H]4CC[C@@]5(C)[C@H](CC[C@@H]6[C@@H]5C[C@@H](O)[C@]5(C)[C@@H](C7=CC(=O)OC7)CC[C@]65O)C4)O[C@@H]3C)O[C@@H]2C)C[C@H](O)[C@@H]1O` [Digoxin], for which the IC50 (as a rule, the concentration needed to halve the response being measured) is 542 nM.
On the same count and under the same terms, then `C[n+]1cc2c3c(ccc2c2ccc4cc5c(cc4c21)OCO5)OCO3` [Sanguinarine chloride], with 1800 nM.

Still in this assay, the particulars now being: Homo sapiens; NB12; 10 serial dilutions 5 μM to 9 nM; Alamar Blue; read-out: NB12 IC50.
In the case of `CC[C@@]1(O)C[C@H](O[C@H]2C[C@H](N(C)C)[C@H](O)[C@H](C)O2)c2c(cc3c(c2O)C(=O)c2c(O)cccc2C3=O)[C@H]1C(=O)OC` [AKLAVINE HYDROCHLORIDE], the half-maximal inhibitory concentration (IC50) was 778 nM.
Still for that read-out and setting: then `COc1cc(NS(C)(=O)=O)ccc1Nc1c2ccccc2nc2ccccc12` [AMSACRINE HYDROCHLORIDE], with 1210 nM.
Still for that read-out and setting: then `CCN(CC)Cc1cc(Nc2ccnc3cc(Cl)ccc23)ccc1O` [Amodiaquin dihydrochloride dihydrate], with 790 nM; and `N=c1ccn2c(n1)O[C@H]1[C@H](O)[C@@H](CO)O[C@H]12` [Ancitabine hydrochloride], with 520 nM.
`Cc1cc(C2CCCCC2)n(O)c(=O)c1` [CICLOPIROX OLAMINE]: the IC50 came out at 2050 nM.
The same measure, in the same setting: then `C[C@@H]1O[C@@H](O[C@H]2CC[C@]3(C=O)[C@H]4CC[C@]5(C)[C@@H](C6=CC(=O)OC6)CC[C@]5(O)[C@@H]4CC[C@]3(O)C2)[C@H](O)[C@H](O)[C@H]1O` [CONVALLATOXIN], with 73.2 nM; and `C=C1C(=O)O[C@H]2C[C@@H]1C(OC(C)=O)C/C(C)=C/CC/C(C)=C/CC[C@@]2(C)O` (some centres unmarked) [CRASSIN ACETATE], with 1950 nM.
On the same count and under the same terms, for `COc1ccc2c(c[n+](C)c3c4cc5c(cc4ccc23)OCO5)c1OC` [Chelerythrine chloride] the value was 2550 nM; for `CC(C)/N=c1\cc2n(-c3ccc(Cl)cc3)c3ccccc3nc-2cc1Nc1ccc(Cl)cc1` [Clofazimine], 1420 nM; for `CC(C)=CCCC1(C)C=Cc2c(O)c3c(c(CC=C(C)C)c2O1)OC12C(=CC4CC1C(C)(C)OC2(C/C=C(/C)C(=O)O)C4O)C3=O` (centres unmarked) [DIHYD[…]], 1690 nM.
`Cc1cc(N)c2ccccc2[n+]1CCCCCCCCCC[n+]1c(C)cc(N)c2ccccc21` [Dequalinium dichloride]: the IC50 turned out to be 3620 nM.
As for `CS(=O)(=O)CCCCN=C=S` [ERYSOLIN], the IC50 amounted to 3280 nM.
Consider `COc1cc([C@@H]2c3cc4c(cc3[C@@H](O[C@@H]3O[C@@H]5CO[C@@H](C)O[C@H]5[C@H](O)[C@H]3O)[C@H]3COC(=O)[C@H]23)OCO4)cc(OC)c1O` [Etoposide], for which the IC50 is 694 nM.
On the same count and under the same terms, then `CC(C)=CCC[C@]1(C)C=Cc2c(O)c3c(c(CC=C(C)C)c2O1)O[C@]12C(=C[C@@H]4C[C@H]1C(C)(C)O[C@@]2(C/C=C(/C)C(=O)O)C4=O)C3=O` [GAMBOGIC ACID], with 1700 nM; and `CC(=O)[C@]1(O)Cc2c(O)c3c(c(O)c2[C@@H](O[C@H]2C[C@H](N)[C@H](O)[C@H](C)O2)C1)C(=O)c1ccccc1C3=O` [Idarubicin], with 204 nM; and `Cc1cccc(CN2CCN(C(c3ccccc3)c3ccc(Cl)cc3)CC2)c1` (centres unmarked) [MECLIZINE HYDROCHLORIDE], with 2540 nM.
Same read-out and setting: for `CC[N+](CC)(CC)CCOc1ccc(/C=C/c2ccccc2)cc1` [MG 624] the value was 848 nM; for `O=C1c2c(O)ccc(O)c2C(=O)c2c(NCCNCCO)ccc(NCCNCCO)c21` [MITOXANTHRONE HYDROCHLORIDE], 60.5 nM.
Turning to `C[C@@H]1O[C@@H](O[C@H]2C[C@@H](O)[C@]3(CO)[C@H]4[C@H](O)C[C@]5(C)[C@@H](C6=CC(=O)OC6)CC[C@]5(O)[C@@H]4CC[C@]3(O)C2)[C@H](O)[C@H](O)[C@H]1O` [Ouabain], the IC50 came to 123 nM.
Turning to `CO[C@H]1C[C@H](O[C@H]2CC[C@]3(C)[C@H]4CC[C@]5(C)[C@@H](C6=CC(=O)OC6)CC[C@]5(O)[C@@H]4CC[C@]3(O)C2)O[C@H](C)[C@H]1O` [PERIPLOCYMARIN], the IC50 stood at 2700 nM.
As to `CO[C@H]1[C@H](O)[C@H](O[C@H]2CC[C@@]3(C=O)[C@H](CC[C@@H]4[C@@H]3CC[C@]3(C)[C@@H](C5=CC(=O)OC5)CC[C@]43O)C2)O[C@@H](C)[C@@H]1O` [PERUVOSIDE], the IC50 came out at 222 nM.
In the case of `COc1cc([C@@H]2c3cc4c(cc3[C@H](O)[C@H]3COC(=O)[C@H]23)OCO4)cc(OC)c1OC` [Podophyllotoxin], the IC50 was 135 nM.
The same measure, in the same setting: for `CCN(CC)CCCC(C)Nc1c2ccc(Cl)cc2nc2ccc(OC)cc12` (centres unmarked) [Quinacrine dihydrochloride] the value was 2560 nM.
Same read-out and setting: then `COc1cc([C@@H]2c3cc4c(cc3[C@@H](O[C@@H]3O[C@@H]5CO[C@@H](c6cccs6)O[C@H]5[C@H](O)[C@H]3O)[C@H]3COC(=O)[C@H]23)OCO4)cc(OC)c1O` [TENIPOSIDE], with 706 nM; and `CC[C@]1(O)C[C@H]2CN(CCc3c([nH]c4ccccc34)[C@@](C(=O)OC)(c3cc4c(cc3OC)N(C=O)[C@H]3[C@@](O)(C(=O)OC)[C@H](OC(C)=O)[C@]5(CC)C=CCN6CC[C@]43[C@@H]65)C2)C1` [Vincristine sulfate], with 62 nM.

Staying with this assay, now noted: NB12; 10 serial dilutions 5 μM to 9 nM; Alamar Blue; read-out: NB12 IC50.
As for `Nc1nc(O)c2[nH]nnc2n1` [Azaguanine-8], the 50% inhibitory concentration (IC50) amounted to 331 nM.
The same measure, in the same setting: for `CC(C)CCC[C@@H](C)[C@H]1CC[C@H]2[C@@H]3C[C@@H](O)[C@@]4(O)C[C@@H](O)CC[C@]4(C)[C@H]3CC[C@]12C` [CHOLESTAN-3beta.5alpha.6beta-TRIOL] the value was 2410 nM; for `CO[C@H]1C=C[C@@]23c4cc5c(cc4CN(C[C@@H]2O)[C@H]3C1)OCO5` [CRINAMINE], 1740 nM.
`CC[C@@]1(O)C(=O)OCc2c1cc1n(c2=O)Cc2cc3ccccc3nc2-1` [Camptothecine (S.+)]: the IC50 worked out at 183 nM.
Same read-out and setting: for `C[C@@H]1O[C@@H](O[C@H]2C[C@@H](O)[C@]3(CO)[C@H]4[C@H](O)C[C@]5(C)[C@@H]([C@@H]6COC(=O)C6)CC[C@]5(O)[C@@H]4CC[C@]3(O)C2)[C@H](O)[C@H](O)[C@H]1O` [Dihydroouabain] the value was 1540 nM; for `COc1cc([C@@H]2c3cc4c(c(O)c3C[C@H]3COC(=O)[C@@H]32)OCO4)cc(OC)c1OC` [beta-PELTATIN], 1950 nM; for Dequalinium analog. C-14 linker, 1110 nM.
Regarding Vinblastine sulfate salt, the IC50 was 113 nM.
